SMILES strings stand for the structures.

The target in one assay is T1, FLT3 (Homo sapiens, UniProt P36888).
T1 construct: purchased Carna 08-145
T1 sequence (P36888 27-993): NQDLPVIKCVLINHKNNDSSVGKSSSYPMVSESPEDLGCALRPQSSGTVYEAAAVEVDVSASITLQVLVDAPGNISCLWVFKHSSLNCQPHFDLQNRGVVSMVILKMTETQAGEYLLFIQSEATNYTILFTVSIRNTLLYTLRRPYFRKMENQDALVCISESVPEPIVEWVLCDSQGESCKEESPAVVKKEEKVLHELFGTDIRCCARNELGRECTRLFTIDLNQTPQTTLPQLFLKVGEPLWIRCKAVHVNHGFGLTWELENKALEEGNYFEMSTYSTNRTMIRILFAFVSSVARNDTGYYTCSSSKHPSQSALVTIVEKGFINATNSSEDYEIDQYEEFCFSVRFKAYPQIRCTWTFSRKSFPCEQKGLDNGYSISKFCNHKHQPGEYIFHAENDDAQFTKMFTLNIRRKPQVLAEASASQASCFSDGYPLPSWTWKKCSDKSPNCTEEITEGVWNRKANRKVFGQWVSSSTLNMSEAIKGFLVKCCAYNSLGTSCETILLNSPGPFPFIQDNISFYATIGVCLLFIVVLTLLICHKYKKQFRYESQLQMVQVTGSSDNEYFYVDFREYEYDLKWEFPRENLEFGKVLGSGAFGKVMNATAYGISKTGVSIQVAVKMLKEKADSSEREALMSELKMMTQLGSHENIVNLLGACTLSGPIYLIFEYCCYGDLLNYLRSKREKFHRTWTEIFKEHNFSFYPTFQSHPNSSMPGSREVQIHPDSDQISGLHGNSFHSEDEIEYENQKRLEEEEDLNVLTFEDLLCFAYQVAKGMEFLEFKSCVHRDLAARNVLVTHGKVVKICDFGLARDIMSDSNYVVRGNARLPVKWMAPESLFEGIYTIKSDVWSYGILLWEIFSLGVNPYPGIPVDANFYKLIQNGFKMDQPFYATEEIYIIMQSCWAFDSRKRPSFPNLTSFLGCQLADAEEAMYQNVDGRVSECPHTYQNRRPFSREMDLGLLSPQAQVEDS
The assay can be described thus: FLT3 kinase in vitro inhibitory activity experiment (Caliper mobility shift, conversion rate). Conditions: IC50 class, read-out: Enzyme activity FLT3. Format: biochemical. Summed up:
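Tested in single wells as ten 3-fold dilutions of a 1 μM initial stock. Compound and FLT3 stood 10 min at room temperature; ATP with Kinase substrate 2 was then added for 30 min at room temperature and the reaction stopped. Conversion was measured by Caliper mobility shift, and inhibition was normalised to control-well conversion.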

A further assay has as its system MV4;11 cells. The assay is described as follows: MV4;11 in vitro inhibition of proliferation assay (CellTiter-Glo, 72 hours). The assay is classed as cell-based. Conditions: Homo sapiens, MV4-11, 72 h, IC50 class, read-out: Inhibitory activity of cell proliferation MV4;11. The gist of the method: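 IC50 came from four-parameter fitting of inhibition rates, based on CellTiter-Glo luminescence after 72 hours at 37° C. Each well held 2000 MV4;11 cells grown in IMDM with 10% serum. Compounds formed a nine-point, threefold DMSO series starting at 10 uM, tested in triplicate at 0.3% final DMSO.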

As for `CCc1nc2c(N)ncc(-c3cnn(-c4ccc(Cl)cc4)c3)c2nc1N[C@@H]1CC[C@H](O)C1` [Compound 291], the IC50 is not above 10 nM on FLT3 and 10 to 100 nM in the assay on MV4;11 cells.
Taken in the same sequence, the figures for `CCc1nc2c(N)ncc(-c3cnn(-c4ccc(OC5CCN(C)CC5)cc4)c3)c2nc1N[C@@H]1CC[C@H](O)C1` [Compound 292, (1S, 3R)-3-((5-amino-3-ethyl-8-(1-(4-((1-methylpiperidin-4-yl)oxy)phenyl)-1H-pyrazol-4-yl)pyridino[3,4-b]pyrazin-2-yl)amino)cyclopentan-1-ol] were more than 500 nM and 100 to 500 nM.
The matching figures for `CCc1nc2c(N)ncc(-c3ccc(N4CCC(N5CC6CCC(C5)N6C)CC4)c(OC)c3)c2nc1NC1CCOCC1` [Compound 293, 3-ethyl-8-(3-methoxy-4-(4-(8-methyl-3,8-diazabicyclo[3.2.1]octan-3-yl)piperidin-1-yl)phenyl)-N2-(tetrahydro-2H-pyran-4-yl)pyridino [3,4-b]pyrazin-2,5-diamine]: not above 10 nM and 10 to 100 nM.
With `CCc1nc2c(N)ncc(-c3cnn(-c4ncccn4)c3)c2nc1N[C@@H]1CC[C@H](O)C1` [Compound 294], the IC50 on FLT3 and in the assay on MV4;11 cells was not above 10 nM in each case.
Take `CCc1nc2c(N)ncc(-c3cnn(-c4cncnc4)c3)c2nc1N[C@@H]1CC[C@H](O)C1` [Compound 295]: the IC50 on FLT3 and in the assay on MV4;11 cells was not above 10 nM in each case.
For `CCc1nc2c(N)ncc(-c3cnn(-c4ccn(C)c(=O)c4)c3)c2nc1N[C@@H]1CC[C@H](O)C1` [Compound 296], the IC50 at FLT3 and with MV4;11 cells was not above 10 nM throughout.
For the compound `CCc1nc2c(N)ncc(-c3cnn(-c4cc(C)n(C)c(=O)c4)c3)c2nc1N[C@@H]1CC[C@H](O)C1` [Compound 299], the IC50 on FLT3 is not above 10 nM; in the assay on MV4;11 cells, 10 to 100 nM.
Taken in the same sequence, the figures for `CCc1nc2c(N)ncc(-c3cnn(-c4ccc(=O)n(C)c4)c3)c2nc1N[C@@H]1CC[C@H](O)C1` [Compound 301] were not above 10 nM and not above 10 nM.
The matching figures for `CCc1nc2c(N)ncc(-c3cnn(-c4cccnc4)c3)c2nc1N[C@@H]1CC[C@H](O)C1` [Compound 302]: not above 10 nM and not above 10 nM.
Taken in the same sequence, the figures for `CCc1nc2c(N)ncc(-c3cnn(-c4ccc(C)cc4)c3)c2nc1N[C@@H]1CC[C@H](O)C1` [Compound 303] were not above 10 nM and 10 to 100 nM.
As for `CCc1nc2c(N)ncc(-c3cnn(-c4cc(C)ncn4)c3)c2nc1N[C@@H]1CC[C@H](O)C1` [Compound 304], the IC50 at FLT3 and in the assay on MV4;11 cells was not above 10 nM each time.
For `CCc1nc2c(N)ncc(-c3cnn(-c4ccnnc4)c3)c2nc1N[C@@H]1CC[C@H](O)C1` [Compound 306], the IC50 on FLT3 and with MV4;11 cells was not above 10 nM each time.
With `CCc1nc2c(N)ncc(-c3cnn(-c4ccnc(C(C)(C)O)c4)c3)c2nc1N[C@@H]1CC[C@H](O)C1` [Compound 308], the IC50 on FLT3 and in the assay on MV4;11 cells was not above 10 nM throughout.
For `CCc1nc2c(N)ncc(-c3cnn(-c4ccnc(OC)c4)c3)c2nc1N[C@@H]1CC[C@H](O)C1` [Compound 309], the IC50 at FLT3 and in the assay with MV4;11 cells was not above 10 nM in each case.
As to `CCc1nc2c(N)ncc(-c3cnn(-c4ccnc(N5CCCC5)c4)c3)c2nc1N[C@@H]1CC[C@H](O)C1` [Compound 310], the IC50 at FLT3 was not above 10 nM; in the assay on MV4;11 cells it was 10 to 100 nM.
The matching figures for `CCc1nc2c(N)ncc(-c3cnn(-c4ccc(CNC)cc4)c3)c2nc1N[C@@H]1CC[C@H](O)C1` [Compound 311]: not above 10 nM and not above 10 nM.
`CCc1nc2c(N)ncc(-c3ccc(-c4cnn(C5CCN(C)CC5)c4)c(OC)c3)c2nc1N[C@@H]1CC[C@H](O)C1` [Compound 312, (1S, 3R)-3-((5-amino-3-ethyl-8-(3-methoxy-4-(1-(1-methylpiperidin-4-yl)-1H-pyrazol-4-yl)phenyl)pyridino [3,4-b]pyrazin-2-yl)amino) cyclopentan-1-ol]: the IC50 on FLT3 was not above 10 nM; in the assay on MV4;11 cells, 10 to 100 nM.
On to `CCc1nc2c(N)ncc(-c3ccc(-c4ccc(C5CCN(C)CC5)cc4)c(OC)c3)c2nc1N[C@@H]1CC[C@H](O)C1` [Compound 313], for which the IC50 was not above 10 nM at FLT3 and 10 to 100 nM with MV4;11 cells.
With `CCc1nc2c(N)ncc(-c3ccc(N4CCC(N5CCCN(C)CC5)CC4)c(OC)c3)c2nc1NC1CCOCC1` [Compound 314], the IC50 on FLT3 and in the assay on MV4;11 cells was 10 to 100 nM throughout.
`CCc1nc2c(N)ncc(-c3ccc(N4CCC(N5CCN(CC)CC5)CC4)c(OC)c3)c2nc1NC1CCOCC1` [Compound 315, 3-ethyl-8-(4-(4-(4-ethylpiperazine-1-yl)piperidine-1-yl)-3-methoxyphenyl)-N2-(tetrahydro-2H-pyran-4-yl)pyridino[3,4-b]pyrazine-2,5-diamine]: the IC50 is not above 10 nM on FLT3 and 10 to 100 nM in the assay on MV4;11 cells.
Taken in the same sequence, the figures for `CCc1nc2c(N)ncc(-c3cnn(-c4ccnc(CO)c4)c3)c2nc1N[C@@H]1CC[C@H](O)C1` [Compound 318] were not above 10 nM and not above 10 nM.
Taken in the same sequence, the figures for `CCc1nc2c(N)ncc(-c3ccc(N4CCC(N5CC6CCC(C5)N6)CC4)c(OC)c3)c2nc1NC1CCOCC1` [Compound 319, 8-(4-(4-(3,8-diazabicyclo[3.2.1]octane-3-yl)piperidin-1-yl)-3-methoxyphenyl)-3-ethyl-N2-(tetrahydro-2H-pyran-pyridin-4-yl)pyridino [3,4-b]pyrazine-2,5-diamine] were not above 10 nM and 10 to 100 nM.
Taken in the same sequence, the figures for `CCc1nc2c(N)ncc(-c3ccc(N4CCC(N5CCN(CC(F)F)CC5)CC4)c(OC)c3)c2nc1NC1CCOCC1` [Compound 321] were not above 10 nM and 10 to 100 nM.
Consider `CCc1nc2c(N)ncc(-c3ccc(N4CCC(N5CCN(C)CC5)CC4C)c(OC)c3)c2nc1NC1CCOCC1` (centres unmarked) [Compound 322], for which the IC50 on FLT3 was not above 10 nM; with MV4;11 cells it was 10 to 100 nM.
In the case of `CCc1nc2c(N)ncc(-c3ccc(N4CCC(N5CC[C@@H](NC)C5)CC4)c(OC)c3)c2nc1NC1CCOCC1` [Compound 323], the values for the IC50 at FLT3 and with MV4;11 cells were not above 10 nM and 10 to 100 nM, respectively.
The matching figures for `CCc1nc2c(N)ncc(-c3ccc(N4CCC(N5CC[C@H](NC)C5)CC4)c(OC)c3)c2nc1NC1CCOCC1` [Compound 324]: not above 10 nM and 10 to 100 nM.
For the compound `CCc1nc2c(N)ncc(-c3ccc(N4CCC(N5CCN(CC)CC5)CC4)c(OC)c3)c2nc1N[C@H]1CCOC1` [Compound 325], the IC50 is not above 10 nM on FLT3 and 10 to 100 nM in the assay with MV4;11 cells.
On to `CCc1nc2c(N)ncc(-c3ccc(N4CCC(N5CCN(CCC#N)CC5)CC4)c(OC)c3)c2nc1NC1CCOCC1` [Compound 326], for which the IC50 at FLT3 and in the assay with MV4;11 cells was 10 to 100 nM each time.
For the compound `CCc1nc2c(N)ncc(-c3ccc(N4CCC(N5C6CCC5CN(C)C6)CC4)c(OC)c3)c2nc1NC1CCOCC1` [Compound 327, 3-ethyl-8-(3-methoxy-4-(4-(3-methyl-3,8-diazabicyclo[3.2.1]octyl-8-yl)piperidin-1-yl)phenyl)-N2-(tetrahydro-2H-pyran-4-yl)pyridino[3,4-b]pyrazine-2,5-diamine], the values for the IC50 at FLT3 and in the assay on MV4;11 cells were not above 10 nM and 10 to 100 nM, respectively.
As to `CCc1nc2c(N)ncc(-c3ccc(N4CCC(N5CCC(C)(O)CC5)CC4)c(OC)c3)c2nc1NC1CCOCC1` [Compound 328], the IC50 on FLT3 was not above 10 nM; in the assay on MV4;11 cells, 10 to 100 nM.
Taken in the same sequence, the figures for `CCc1nc2c(N)ncc(-c3cnn(-c4ccc(C(C)(C)O)nc4)c3)c2nc1N[C@@H]1CC[C@H](O)C1` [Compound 329] were not above 10 nM and not above 10 nM.
Taken in the same sequence, the figures for `CCc1nc2c(N)ncc(-c3cnn(-c4ncc(C(C)(C)O)cn4)c3)c2nc1N[C@@H]1CC[C@H](O)C1` [Compound 330] were not above 10 nM and 10 to 100 nM.
As to `CCc1nc2c(N)ncc(-c3cnn(-c4cnc(C(C)(C)O)nc4)c3)c2nc1N[C@@H]1CC[C@H](O)C1` [Compound 331], the IC50 at FLT3 and in the assay with MV4;11 cells was not above 10 nM each time.
As to `CCc1nc2c(N)ncc(-c3cnn(-c4cnc(C(C)(C)O)cn4)c3)c2nc1N[C@@H]1CC[C@H](O)C1` [Compound 332], the IC50 at FLT3 and in the assay with MV4;11 cells was not above 10 nM throughout.

Source of the values: patent US12673947B2 (Cytosinlab Therapeutics Co., Ltd., priority 2020, dated 2026).
